Laboratory results published in PubChem BioAssay AID2060908 (Molecular Pharmacology Branch, DTP, NCI, 2025).

Tested on: 186277-243-T-J2-PDC complex spheroids, viability
Assay: Anticancer human tumor 186277-243-T-J2-PDC patient-derived colon adenocarcinoma cell line growth inhibition [RAS]
Conditions: for IC50: curve of first compound; for viability, T/C: stronger effect = lower value
Procedure, shortened: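 Tumour cells grown as complex spheroids with HUVEC endothelial cells and mesenchymal stem cells, treated with RAS pathway inhibitor combinations. Each agent spans half-log steps from near clinical Cmax, or 10 microM where Cmax is unknown.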
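Note: spheroids exposed to compounds for 7 days before viability read.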

Work on `C=CC(=O)Nc1cc(Nc2nccc(-c3cn(C)c4ccccc34)n2)c(OC)cc1N(C)CCN(C)C` + C=CC(=O)N1CCN(c2nc(OCC3CCCN3C)nc3c(F)c(-c4nc(N)cc(C)c4C(F)(F)F)c(Cl)cc23)C(C)C1 yielded an IC50 (second compound 0.00316 µM) greater than 1000 nM, an IC50 (second compound 0.01 µM) greater than 1000 nM and an IC50 (second compound 0.0316 µM) greater than 1000 nM. The IC50 (second compound 0.1 µM) was greater than 1000 nM, the IC50 (second compound 0.316 µM) was greater than 1000 nM and the IC50 (second compound 1 µM) was greater than 1000 nM. For the same molecule, the viability, T/C (second compound 0.00316 µM, first compound 0.00316 µM) was 82.3%, the viability, T/C (second compound 0.00316 µM, first compound 0.01 µM) was 89.4% and the viability, T/C (second compound 0.00316 µM, first compound 0.0316 µM) was 89.8%. The viability, T/C (second compound 0.00316 µM, first compound 0.1 µM) was 80.5%, the viability, T/C (second compound 0.00316 µM, first compound 0.316 µM) was 97.4% and the viability, T/C (second compound 0.00316 µM, first compound 1 µM) was 110%. The viability, T/C (second compound 0.01 µM, first compound 0.00316 µM) was 96.1%, the viability, T/C (second compound 0.01 µM, first compound 0.01 µM) was 88.2% and the viability, T/C (second compound 0.01 µM, first compound 0.0316 µM) was 89.8%. The viability, T/C (second compound 0.01 µM, first compound 0.1 µM) was 94%, the viability, T/C (second compound 0.01 µM, first compound 0.316 µM) was 107% and the viability, T/C (second compound 0.01 µM, first compound 1 µM) was 77.3%. It also gave a viability, T/C (second compound 0.0316 µM, first compound 0.00316 µM) of 84.8%, a viability, T/C (second compound 0.0316 µM, first compound 0.01 µM) of 91.6% and a viability, T/C (second compound 0.0316 µM, first compound 0.0316 µM) of 93.2%. It also gave a viability, T/C (second compound 0.0316 µM, first compound 0.1 µM) of 96.1%, a viability, T/C (second compound 0.0316 µM, first compound 0.316 µM) of 99.1% and a viability, T/C (second compound 0.0316 µM, first compound 1 µM) of 97%. The viability, T/C (second compound 0.1 µM, first compound 0.00316 µM) was 89.6%, the viability, T/C (second compound 0.1 µM, first compound 0.01 µM) was 85% and the viability, T/C (second compound 0.1 µM, first compound 0.0316 µM) was 79.5%. The viability, T/C (second compound 0.1 µM, first compound 0.1 µM) was 109%, the viability, T/C (second compound 0.1 µM, first compound 0.316 µM) was 126% and the viability, T/C (second compound 0.1 µM, first compound 1 µM) was 86.8%. The viability, T/C (second compound 0.316 µM, first compound 0.00316 µM) was 89.4%, the viability, T/C (second compound 0.316 µM, first compound 0.01 µM) was 94.3% and the viability, T/C (second compound 0.316 µM, first compound 0.0316 µM) was 103%. It also gave a viability, T/C (second compound 0.316 µM, first compound 0.1 µM) of 86.5%, a viability, T/C (second compound 0.316 µM, first compound 0.316 µM) of 130% and a viability, T/C (second compound 0.316 µM, first compound 1 µM) of 98.9%. It also gave a viability, T/C (second compound 1 µM, first compound 0.00316 µM) of 109%, a viability, T/C (second compound 1 µM, first compound 0.01 µM) of 78.8% and a viability, T/C (second compound 1 µM, first compound 0.0316 µM) of 91.9%. It also gave a viability, T/C (second compound 1 µM, first compound 0.1 µM) of 104%, a viability, T/C (second compound 1 µM, first compound 0.316 µM) of 82.1% and a viability, T/C (second compound 1 µM, first compound 1 µM) of 81.2%.
